Experimental data from patent publication US8354387B2, “Methods and compositions for delivering siRNA into mammalian cells” (Centre National de la Recherche Scientifique, priority 2004, dated 2013).

Assays:
[1] = tested on: 15PC3 cells or A549 cells (human bronchoalveolar carcinoma) tumors; assay: Tumour growth after intratumoral injection in Swiss nude mice; type: in vivo; conditions: 20 days after injection
Protocol: FIG. 8: Cyclin-B1 siRNA inhibits tumour growth. Mice were infected subcutaneously with 15PC3 cells (ATCC no CRL-1435). One week later, MPG/siRNA complexes were injected directly into the tumour, at different concentrations (1 μg, 5 μg, 10 μg, in 50 μl of PBS).
Cyclin B1 siRNA inhibits tumor growth: In vivo injections and tumors analysis. Five weeks old female Swiss nude nice were injected subcutaneously with 2×10^7 15PC3 cells or A549 cells (n^o ATCC CCL-185) (human bronchoalveolar carcinoma). When tumors reached a mean volume of 50 to 100 mm^3, (a week later), mice were injected intra-tumorally or sub-tumorally with 50 μl of PBS containing anti cyclin B1 siRNA (1, 5, 10 μg) or scrambled siRNA (50 μg) complexed with MPG or siRNA (50 μg). 50 μl of PBS was used as a control. Tumor volume was measured with calipers every two days. A second injection was performed after 10 days and tumor size was measured after 20 days.
As delivery of siRNA directed against cyclin B1 blocked proliferation of cancer cells, the role of siRNA/MPG formulation to block tumor growth in vivo. The effect of the cyclin B1 siRNA was investigated on tumor animal model (FIG. 8), using Swiss nude nice, injected subcutaneously with 2×10^7 15PC3 cells or A549 cells (human bronchoalveolar carcinoma). Different MPG/siRNA complexed were injected intratumorally and monitoring tumor volumes followed the effect of siRNA.

[2] = tested on: human breast cancer cell line MCF-7; assay: Proliferation of MCF-7 cancer cells; type: cell-based; conditions: controls, MCF-7, 8 days
Protocol: FIG. 7: Cyclin-B1 siRNA inhibits tumour growth. Exponentially MCF-7 growing cells (1-3 10^4) were incubated with different concentrations (10 nM, 50 nM, 100 nM) of siRNA or mismatched siRNA complexed or not with MPG (molecular ratio 1:10) and cell proliferation was assessed 8 days post incubation.
Cell culture, MPG mediated transfection. Adherent fibroblastic Hs68 (ATCC no CRL-1635), 293 (ATCC no CRL-1573), HeLa (ATCC no CCL-2) and MCF-7 (ATCC no HTB-22) cell lines were cultured in Dulbecco's Modified Eagle's Medium supplemented with […] glutamine, 1% antibiotics (streptomycin 10,000 μg/ml, penicillin, 10,000 IU/ml) and 10% (w/v) fetal calf serum (FCS), at 37° C. in a humidified atmosphere containing 5% CO2. For MPG-mediated delivery of siRNA, complexes were formed by incubation of different concentrations of siRNA from 10 nM to 1 μM with MPG at a molecular ratio of 1:10, respectively, in 500 μl of DMEM for 30 min at 37° C. Cells grown to 40 to 60% confluence were then overlaid with preformed complexes. After 30 min incubation at 37° C., 1 ml of fresh DMEM supplemented with 10% fetal calf serum was added directly to the cells, without removing the overlay of siRNA/MPG complexes, and cells were returned to the incubator. Different concentrations of siRNA or phosphorothioate oligonucleotide were transfected with cationic lipids, Lipofectamine or Oligofectamine (Invitrogen, Carlsbad, US), according to the guidelines of the manufacturer.
As delivery of siRNA directed against cyclin B1 promotes efficient downregulation of both cyclin B1 mRNA and protein levels, it was looked for to what extent this might affect proliferation of cancer cells. The effect of siRNA was investigated on the human breast cancer cell line MCF-7. Exponentially growing cells (1-3 10^4) were incubated with different concentrations (10 nM, 50 nM, 100 nM) of siRNA or mismatched siRNA complexed or not with MPG (molecular ratio 1:10) and cell proliferation was assessed 8 days post incubation (FIG. 7).

With “GALFLGFLGAAGSTMGAWSQPKKKRKV (carrier peptide) [MPG, bipartite amphipathic peptide derived from fusion peptide domain of HIV-1 gp41 and NLS of SV40 large T antigen]” the tumor size increase [1] was 2.5 fold and the “effect on cell proliferation” value [2] was “neither free siRNA or scrambled molecules, or the peptide carrier alone affected cell proliferation”.
